Measured values as given in PubChem BioAssay (NCI).
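A five-concentration, 48-hour dose response in 96-well plates underlies each endpoint, interpolated linearly between surrounding concentrations. GI50: concentration for 50% inhibition of growth. TGI: concentration producing complete growth inhibition.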

Tests used:
Experiment in all cases: inhibition of tumour cell growth, NCI panel, 48 h
LOX IMVI melanoma = tested on: LOX IMVI melanoma
OVCAR-8 ovarian = tested on: OVCAR-8 ovarian
NCI-H460 lung = tested on: NCI-H460 lung
OVCAR-4 ovarian = tested on: OVCAR-4 ovarian
SNB-19 CNS = tested on: SNB-19 CNS
HCC-2998 colon = tested on: HCC-2998 colon
A549 NSCLC = tested on: A549 NSCLC
CCRF-CEM leukemia = tested on: CCRF-CEM leukemia
SK-MEL-2 melanoma = tested on: SK-MEL-2 melanoma
K-562 leukemia = tested on: K-562 leukemia
NCI-H226 lung = tested on: NCI-H226 lung

| SMILES | TGI (LOX IMVI melanoma) | TGI (OVCAR-8 ovarian) | TGI (NCI-H460 lung) | TGI (OVCAR-4 ovarian) | TGI (SNB-19 CNS) | TGI (HCC-2998 colon) | TGI (A549 NSCLC) | TGI (CCRF-CEM leukemia) | TGI (SK-MEL-2 melanoma) | TGI (K-562 leukemia) | TGI (NCI-H226 lung) | GI50 (NCI-H460 lung) | GI50 (OVCAR-4 ovarian) | GI50 (A549 NSCLC) | GI50 (CCRF-CEM leukemia) | GI50 (SK-MEL-2 melanoma) | GI50 (K-562 leukemia) | GI50 (NCI-H226 lung) | GI50 (LOX IMVI melanoma) | GI50 (HCC-2998 colon) |
| --- | --- | --- | --- | --- | --- | --- | --- | --- | --- | --- | --- | --- | --- | --- | --- | --- | --- | --- | --- | --- |
| O=c1[nH]nc(NCc2ccccc2)c2nnn(Cc3ccccc3)c12 | > 100 µM | > 100 µM | > 100 µM | > 100 µM | > 100 µM | > 100 µM | > 100 µM | > 100 µM | > 100 µM | > 100 µM | – | – | – | – | – | – | – | – | – | – |
| OCC1COc2cc(Cl)c(Cl)cc2O1 (stereo unspecified) | > 10 µM | > 10 µM | > 10 µM | > 10 µM | > 10 µM | > 10 µM | > 10 µM | > 10 µM | > 10 µM | > 10 µM | > 10 µM | – | – | – | – | – | – | – | – | – |
| Cc1c[n+]2c3ccccc3c3ccccc3c2s1 | 41.9 µM | 28.8 µM | 25.5 µM | 32.7 µM | 15.6 µM | 13.7 µM | > 100 µM | 28.4 µM | 25.7 µM | 44.5 µM | 3.89 µM | – | – | – | – | – | – | – | – | – |
| Cc1cccc(Br)[n+]1[O-] | > 100 µM | > 100 µM | > 100 µM | > 100 µM | > 100 µM | – | > 100 µM | > 100 µM | > 100 µM | > 100 µM | > 100 µM | – | – | – | – | – | – | – | – | – |
| NCCSc1cc(O)c2c(c1N)C(=O)c1ccccc1C2=O | – | > 100 µM | > 100 µM | > 100 µM | > 100 µM | > 100 µM | > 100 µM | 43.1 µM | > 100 µM | 69.1 µM | – | – | – | – | – | – | – | – | – | – |
| COc1cc(C2c3cc4c(cc3[C@@H](Nc3cccc(CO)c3)C3COC(=O)[C@H]23)OCO4)cc(OC)c1O (stereo partly specified) | 3.74 µM | 16.2 µM | 1.75 µM | 30.4 µM | 15.7 µM | 3.79 µM | 1.96 µM | 0.732 µM | 6.2 µM | 5.87 µM | 1.7 µM | – | – | – | – | – | – | – | – | – |
| COc1cc(OC)cc(-c2ccc(-c3ccc(C(=N)N)cn3)o2)c1 | – | – | 3.16 µM | 3.46 µM | – | – | 3.52 µM | 4.6 µM | 3.72 µM | 2.98 µM | – | 1.63 µM | 1.74 µM | 1.86 µM | 2.06 µM | 2.01 µM | 1.32 µM | – | – | – |
| C=CCN1/C(=C(\C#N)c2nc3ccccc3[nH]2)Sc2c1nc[nH]c2=O | – | > 100 µM | > 100 µM | > 100 µM | > 100 µM | > 100 µM | > 100 µM | > 100 µM | > 100 µM | > 100 µM | – | – | – | – | – | – | – | – | – | – |
| CSCC[C@@H]1C(=O)N(C)[C@H](C(C)(C)C)N1C(=O)c1ccccc1 | > 100 µM | > 100 µM | > 100 µM | > 100 µM | > 100 µM | > 100 µM | > 100 µM | > 100 µM | > 100 µM | > 100 µM | > 100 µM | – | – | – | – | – | – | – | – | – |
| CC(=O)c1[nH]c(NC(C)C)c(C(=S)Nc2ccccc2)c1N | 37.8 µM | 94.9 µM | > 100 µM | > 100 µM | 91.5 µM | 75.5 µM | 94.3 µM | 72.9 µM | 33 µM | > 100 µM | 60.4 µM | – | – | – | – | – | – | – | – | – |
| COc1cc2c3cc1Oc1c(O)c(OC)cc4c1C(Cc1ccc(O)c(c1)Oc1ccc(cc1)CC3N(C)CC2)N(C)CC4 (stereo unspecified) | 10.7 µM | 28.4 µM | 28.4 µM | 28.2 µM | 68 µM | 13.6 µM | 31.4 µM | 36.7 µM | 38.4 µM | 10.3 µM | 38.3 µM | – | – | – | – | – | – | – | – | – |
| Cc1[nH]c(=O)[nH]c(=O)c1/C=C/C(=O)O (tested in a mixture with another compound) | > 625 µM | > 568 µM | > 625 µM | > 625 µM | > 625 µM | > 625 µM | > 625 µM | > 625 µM | > 625 µM | > 625 µM | > 625 µM | – | – | – | – | – | – | – | – | – |
| COc1cc(C(=O)O[C@H](C(=O)NCCCNC(=O)[C@@H](OC(=O)c2cc(OC)cc3c(C)cccc23)[C@]2(C)CO2)[C@]2(C)CO2)c2cccc(C)c2c1 | < 0.01 µM | – | 0.902 µM | 0.231 µM | 0.701 µM | 0.224 µM | 0.718 µM | – | 34.6 µM | 0.923 µM | 0.762 µM | < 0.019 µM | < 0.01 µM | 0.128 µM | < 0.01 µM | 0.137 µM | < 0.0359 µM | 0.151 µM | < 0.01 µM | < 0.0198 µM |
| N#CC(N=Nc1ccccc1C(=O)O)C(N)=O (stereo unspecified) | – | – | > 100 µM | > 100 µM | > 100 µM | – | > 100 µM | > 100 µM | > 100 µM | > 100 µM | > 100 µM | – | – | – | – | – | – | – | – | – |
| COc1nc2cccc(C(O)c3ccccc3)c2nc1-c1ccccc1 (stereo unspecified) | 22 µM | > 100 µM | 24.8 µM | > 100 µM | 51.1 µM | – | 54.5 µM | 10.8 µM | 33.3 µM | 19.7 µM | 13.3 µM | – | – | – | – | – | – | – | – | – |
| O=C1C=CC2OC(c3ccccc3)C(O)C2O1 (stereo unspecified) | 8.18 µM | 20.2 µM | 16.2 µM | 17.9 µM | 30.2 µM | 10.9 µM | 14.5 µM | 11.6 µM | 6.63 µM | 59.7 µM | 5.2 µM | – | – | – | – | – | – | – | – | – |
| COc1cccc(/C=N/NC(=O)CSCC(=O)N/N=C/c2cccc(OC)c2OC)c1OC | – | > 100 µM | > 100 µM | > 100 µM | > 100 µM | > 100 µM | > 100 µM | – | > 100 µM | > 100 µM | > 100 µM | – | – | – | – | – | – | – | – | – |
| CCC(C)C(N)C(=O)NC(CC(N)=O)C(=O)NC(CC(C)C)C(=O)NC(CCCCN)C(=O)NC(C)C(=O)NC(CC(C)C)C(=O)NC(C)C(=O)NC(C)C(=O)NC(CC(C)C)C(=O)NC(C)C(=O)NC(CCCCN)C(=O)NC(CCCCN)C(=O)NC(C(=O)NC(CC(C)C)C(N)=O)C(C)CC (stereo unspecified) | 35.3 µM | 34.3 µM | 28.9 µM | 31.9 µM | 27.8 µM | > 56.3 µM | 24.9 µM | 18.6 µM | 36.8 µM | 36.3 µM | 29 µM | – | – | – | – | – | – | – | – | – |
| CC1(C)[C@@H]2CC[C@]1(C)[C@H](OC(=O)/C=C/c1ccccc1)C2 | 37.1 µM | 36.5 µM | > 100 µM | 55.1 µM | 36.3 µM | 30.7 µM | > 100 µM | 41.6 µM | 35 µM | 38.1 µM | 36.4 µM | – | – | – | – | – | – | – | – | – |
| O=c1c2ccccc2[nH]n1Cc1ccccc1 | > 100 µM | > 100 µM | > 100 µM | > 100 µM | > 100 µM | > 100 µM | > 100 µM | > 100 µM | > 100 µM | > 100 µM | > 100 µM | – | – | – | – | – | – | – | – | – |
